Values quoted from earlier work as cited in patent publication US9908886B2 (Agency for Science, Technology and Research, priority 2012, dated 2018).
Entries after “also recorded” stand apart in the source; their conditions may differ.

How the values were obtained:
[1] = tested on: CD34+ BC-CML primary cells; settings: background section; including cells carrying T315I mutation; cited from earlier work
[2] = tested on: nuclear beta-catenin in BC-CML cells; settings: background section; cited from earlier work
[3] = tested on: eIF4E phosphorylation in BC GMPs; settings: background section; cited from earlier work
[4] = tested on: patient-derived BC cells in NSG mice; settings: in vivo treatment for three consecutive weeks; CGP57380 40 mg/kg/d, dasatinib 5 mg/kg/d; background section; cited from earlier work
[5] = tested on: TNF production by macrophage; settings: TLR agonist stimulation; literature; cited from earlier work
[6] = tested on: BC CD34+ CML cells; settings: in vitro treatment of the cells; background section; cited from earlier work

Nc1ncnc2n[nH]c(Nc3ccc(F)cc3)c12 [CGP57380]
ability of CD34+ BC cells to serially replate for more than 8 weeks in methylcellulose [1]: impaired the ability of CD34+ BC cells
accumulation of active nuclear beta-catenin in BC GMPs [2]: preventes accumulation of active nuclear beta-catenin
eIF4E phosphorylation in BC GMPs [3]: inhibited eIF4E phosphorylation
serial transplantation of BC cells in NSG mice at 16 weeks [4]: prevented BC cells from serially transplanting NSG mice
production / release of TNF by macrophage [5]: inhibited by MNK kinases inhibitor CGP57380 in a dose dependant fashion; also recorded: inhibits the release of TNF alpha by macrophage
ability of BC CD34+ CML cells to engraft NSG mice [6]: retarded their ability to engraft NSG mice
